Measured values reported in patent US11440870B2, “Cannabidiolic acid esters compositions and uses thereof” (Yissum Research Development Company of the Hebrew …, priority 2017, dated 2022).

System: LiCl-induced conditioned gaping (acute nausea) in rats
Experiment: Acute nausea: LiCl-induced conditioned gaping (taste reactivity test) in rats
Format: in vivo, male Sprague-Dawley rats
Details: for LiCl-induced conditioned gaping relative to vehicle: 45 min before conditioning; for Lowest effective dose for suppression of acute nausea-induced conditioned gaping: i.p., rats (FIG. 3)
From the text: Animal procedures complied with the Canadian Council on Animal Care, and the protocols were approved by the Institutional Animal Care Committee at University of Guelph. Animal studies are reported in compliance with the ARRIVE guidelines (Kilkenny et al., 2010; McGrath and Lilley, 2015). A total of 200 näive male Sprague-Dawley rats, obtained from Charles River Laboratories (St Constant, Quebec), were used for all in vivo studies. Rats were individually housed (for acute nausea studies) or pair-housed [for anticipatory nausea and light-dark emergence studies] in home cages made of opaque white plastic (48×26×20 cm), containing bed-o-cob bedding from Harlan Laboratories, Inc. (Mississauga, Ontario), a brown paper towel, and Crinkl'Nest™ from The Andersons, Inc. (Maumee, Ohio). Additionally, in the home cage, rats were provided with a soft white paper container that was 14 cm long and 12 cm in diameter. All rats were subjected to an ambient temperature of 21° C. and a 12/12 h light-dark schedule (lights off at 07:00 h) and maintained on food (Highland Rat Chow [8640]) and water ad libitum. For the acute and anticipatory nausea studies, their body weights ranged from 263 to 329 g on the day of conditioning. For the light-dark emergence studies, their body weights ranged from 320 to 387 g on the day of test.
For the studies of acute nausea (in vivo experiment 1), rats were placed in taste reactivity (Grill and Norgren, 1978) chambers with their cannula attached to an infusion pump (Model KDS100, KD Scientific, Holliston, Mass., USA) for fluid delivery. The taste reactivity chambers were made of clear Plexiglas (22.5×26×20 cm) that sat on a table with a clear glass top. A mirror beneath the chamber at a 45° angle facilitated viewing of the ventral surface of the rat to observe orofacial responses. The conditioning chamber was in a dark room next to a 25 W light source. A video camera (Sony DCR-HC48, Henry's Cameras, Waterloo, ON, Canada) fire-wired into a computer was focused on the mirror and used to record each rat's orofacial reactions during the 2 min taste reactivity test. The video tapes were later scored using ‘The Observer’ (Noldus Information Technology Inc., Leesburg, Va., USA) software.
All rats were surgically implanted with an intraoral cannula according the procedures described by Limebeer et al. (2010). On the day of surgery, the rats were injected with an antibiotic (Derapin: […] s.c.; Pfizer Animal Health, Pfizer Canada Inc, Kirkland, Quebec, Canada) 30 min prior to being anaesthetized with isoflurane (4-5% induction, 1.5% maintenance in O2). Surgical plane anesthesia, as indicated by absence of the hind limb withdrawal reflex and defined by the Canadian Council of Animal Care, was induced before any surgery began, and was adjusted as necessary. Once sufficient anesthesia had been induced, a 2 cm^2 section of skin was shaved at the back of the neck at the level of the scapula. The skin was prepared by cleaning with soap (Bactistat; Ecolab, St. Paul, Minn., USA) and wiping with 70% isopropyl alcohol followed by 7% Betadine solution (Purdue Products L.P., Stamford, Conn., USA). Each rat was then administered a 5 mg·kg^−1 injection (i.p.) of the anti-inflammatory/analgesic drug carprofen (Rimadyl; Pfizer Canada Inc., Kirkland, Quebec, Canada). A thin-walled 15-gauge stainless steel needle was inserted into the shaved area on the neck, directed subcutaneously around the ear and brought out behind the first molar inside the mouth. A 10 cm length of Intra Medic PE90 tubing (Clay Adams Brand; Becton Dickinson and Co., Sparks, Md., USA) with an inner diameter of 0.86 mm and an outer diameter of 1.27 mm was then inserted through the needle after which the needle was removed. Betadine (10%) was applied to the puncture site and three elastic discs (2 cm^2) were placed over the exposed end of the tubing and drawn to the skin at the back of the neck for the purpose of stabilizing the cannula. […]

| SMILES | LiCl-induced conditioned gaping relative to vehicle (0.1 μg·kg−1 i.p.) | LiCl-induced conditioned gaping relative to vehicle (1 μg·kg−1 i.p., P<0.05) | Lowest effective dose for suppression of acute nausea-induced conditioned gaping [µg/kg] | Suppressive effect on acute nausea after 5-HT1A antagonist pretreatment (0.1 μg·kg−1 HU-580 i.p., WAY100635 0.1 mg·kg−1 15 min before) |
| --- | --- | --- | --- | --- |
| C=C(C)[C@@H]1CCC(C)=C[C@H]1c1c(O)cc(CCCCC)c(C(=O)O)c1O [CBDA, Cannabidiolic acid] | subthreshold | reduced LiCl-induced gaping responses relative to vehicle | 1 | – |
| C=C(C)[C@@H]1CCC(C)=C[C@H]1c1c(O)cc(CCCCC)c(C(=O)OC)c1O [HU-580, Cannabidiolic Acid Methyl Ester] | reduced LiCl-induced conditioned gaping behavior relative to vehicle | reduced LiCl-induced gaping responses relative to vehicle | 0.1 | blocked by WAY100635 |
